In patent US10138230B2, “Autotaxin inhibitors” (CANCER RESEARCH TECHNOLOGY LIMITED, priority 2015, dated 2018):
Counter-ions that a name gives are not always drawn.

Each compound was assayed against human recombinant ATX (Homo sapiens (Human), UniProt Q13822) (assay: Autotaxin (ATX) activity Quanta Red assay). Conditions: 15 μM Rac-1-Palmitoyl-glycero-3-phosphocholine, 2 hours room temperature, determined in duplicate.
Assay type: biochemical
In short: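 Choline released from 15 μM LPC substrate by 0.8 μg/mL recombinant human ATX (pH 8.0 Tris, CaCl2, 4% DMSO, 2 h, RT) was detected by coupled Quanta Red fluorescence.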
O=C(NC1CC(=O)N(c2ccc(CN3CCCCC3)cc2)C1)c1cc(CCc2ccccc2)[nH]n1 (centres unmarked) [Compound F204, 5-phenethyl-1H-pyrazole-3-carboxylic acid [5-oxo-1-(4-piperidin-1-ylmethyl-phenyl)-pyrrolidin-3-yl]-amide hydrochloride] showed an IC50 of 1080 nM. In the case of O=C(NC1CC(=O)N(c2ccc(CN3CCCCC3)cc2)C1)c1ccc(CCc2ccccc2)nn1 (centres unmarked) [Compound F205, N-[5-oxo-1-[4-(1-piperidylmethyl)phenyl]pyrrolidin-3-yl]-6-(2-phenylethyl)pyridazine-3-carboxamide], the IC50 is reported as 7060 nM. In the case of O=C(NC1CC(=O)N(c2ccc(CN3CCCCC3)cc2)C1)c1cnc(CCc2ccccc2)s1 (centres unmarked) [Compound F206, N-[5-oxo-1-[4-(1-piperidylmethyl)phenyl]pyrrolidin-3-yl]-2-(2-phenylethyl)thiazole-5-carboxamide], the IC50 is reported as 9350 nM. With COc1ccc(CCc2nnc(NC(=O)C3CC(=O)N(c4ccc(CN5CCOCC5)cc4)C3)o2)cc1 (centres unmarked) [Compound F207, N-[5-[2-(4-methoxyphenyl)ethyl]-1,3,4-oxadiazol-2-yl]-1-[4-(morpholinomethyl)phenyl]-5-oxo-pyrrolidine-3-carboxamide] the IC50 was 2450 nM. Work on CCN(C)Cc1ccc(N2CC(C(=O)Nc3nnc(CCc4ccc(Cl)cc4)s3)CC2=O)cc1 (centres unmarked) [Compound F211, 1-{4-[(Ethyl-methyl-amino)-methyl]-phenyl}-5-oxo-pyrrolidine-3-carboxylic acid {5-[2-(4-chloro-phenyl)-ethyl]-[1,3,4]thiadiazol-2-yl}-amide] yielded an IC50 of 9 nM. O=C(Nc1nnc(CCc2ccc(Cl)cc2)s1)[C@H]1CC(=O)N(c2ccc(CN3CCC4(COC4)C3)cc2)C1 [Compound F212, (3S)-N-[5-[2-(4-chlorophenyl)ethyl]-1,3,4-thiadiazol-2-yl]-1-[4-(2-oxa-7-azaspiro[3.4]octan-7-ylmethyl)phenyl]-5-oxo-pyrrolidine-3-carboxamide] showed an IC50 of 1 nM. O=C(Nc1nnc(CCc2ccc(Cl)cc2)s1)[C@H]1CC(=O)N(c2ccc(CN3CC4(COC4)C3)cc2)C1 [Compound F213, (3S)-N-[5-[2-(4-chlorophenyl)ethyl]-1,3,4-thiadiazol-2-yl]-1-[4-(2-oxa-6-azaspiro[3.3]heptan-6-ylmethyl)phenyl]-5-oxo-pyrrolidine-3-carboxamide] showed an IC50 of 1 nM. CS(=O)(=O)NCc1ccc(N2C[C@H](NC(=O)c3nnc(CCc4ccc(Cl)cc4)s3)CC2=O)cc1 [Compound F214, 5-[2-(4-chlorophenyl)ethyl]-N-[(3R)-1-[4-(methanesulfonamido-methyl)phenyl]-5-oxo-pyrrolidin-3-yl]-1,3,4-thiadiazole-2-carboxamide] gave an IC50 of 134 nM.
